PubChem BioAssay AID2060887 (Molecular Pharmacology Branch, DTP, NCI, 2025)

Tested on: 782815-120-R-J1-PDC complex spheroid viability
Test: Anticancer human tumor 782815-120-R-J1-PDC patient-derived colon adenocarcinoma cell line growth inhibition [RAS]
Conditions: for IC50: curve of first compound; for viability, T/C: stronger effect = lower value; active means viability on the fitted dose curve at most 10% of control; inactive means the rest
In short: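 Agents were tested in combination matrices in half-log decrements from a top concentration at or near clinical Cmax (10 microM if undetermined). Targets were multi-cell spheroids of tumour lines plus HUVEC and MSC stromal cells.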

[1] = second compound 0.000949 µM, first compound 0.0316 µM
[2] = second compound 0.000949 µM, first compound 0.1 µM
[3] = second compound 0.000949 µM, first compound 0.316 µM
[4] = second compound 0.000949 µM, first compound 1 µM
[5] = second compound 0.000949 µM, first compound 3.16 µM
[6] = second compound 0.000949 µM, first compound 10 µM
[7] = second compound 0.003 µM, first compound 0.0316 µM
[8] = second compound 0.003 µM, first compound 0.1 µM
[9] = second compound 0.003 µM, first compound 0.316 µM
[10] = second compound 0.003 µM, first compound 1 µM
[11] = second compound 0.003 µM, first compound 3.16 µM
[12] = second compound 0.003 µM, first compound 10 µM
[13] = second compound 0.00949 µM, first compound 0.0316 µM
[14] = second compound 0.00949 µM, first compound 0.1 µM
[15] = second compound 0.00949 µM, first compound 0.316 µM
[16] = second compound 0.00949 µM, first compound 1 µM
[17] = second compound 0.00949 µM, first compound 3.16 µM
[18] = second compound 0.00949 µM, first compound 10 µM
[19] = second compound 0.03 µM, first compound 0.0316 µM
[20] = second compound 0.03 µM, first compound 0.1 µM
[21] = second compound 0.03 µM, first compound 0.316 µM
[22] = second compound 0.03 µM, first compound 1 µM
[23] = second compound 0.03 µM, first compound 3.16 µM
[24] = second compound 0.03 µM, first compound 10 µM
[25] = second compound 0.0949 µM, first compound 0.0316 µM
[26] = second compound 0.0949 µM, first compound 0.1 µM
[27] = second compound 0.0949 µM, first compound 0.316 µM
[28] = second compound 0.0949 µM, first compound 1 µM
[29] = second compound 0.0949 µM, first compound 3.16 µM
[30] = second compound 0.0949 µM, first compound 10 µM
[31] = second compound 0.3 µM, first compound 0.0316 µM
[32] = second compound 0.3 µM, first compound 0.1 µM
[33] = second compound 0.3 µM, first compound 0.316 µM
[34] = second compound 0.3 µM, first compound 1 µM
[35] = second compound 0.3 µM, first compound 3.16 µM
[36] = second compound 0.3 µM, first compound 10 µM
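Further: spheroids exposed to compounds for 7 days before reading.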
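Wherever viability, T/C is given: 100% = DMSO vehicle control viability.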

C[C@@H](NC(=O)c1ncnc(N)c1Cl)c1ncc(C(=O)Nc2cc(C(F)(F)F)c(Cl)cn2)s1 + CCn1c(-c2cccnc2C(C)OC)c2c3cc(ccc31)N1CCOC(CC(NC(=O)C(C(C)C)N(C)C(=O)C3(F)CCN(C(=O)C#CC(C)(C)N(C)C)CC3)C(=O)N3CCCC(N3)C(=O)OCC(C)(C)C2)C1
9.85 µM: IC50 (second compound 0.0949 µM)
inactive: viability, T/C [1] 106% | viability, T/C [2] 103% | viability, T/C [3] 105% | viability, T/C [4] 79.2% | viability, T/C [5] 56.9% | viability, T/C [6] 56.3% | viability, T/C [7] 107% | viability, T/C [8] 100% | viability, T/C [9] 103% | viability, T/C [10] 65.6% | viability, T/C [11] 59.6% | viability, T/C [12] 51.9% | viability, T/C [13] 104% | viability, T/C [14] 108% | viability, T/C [15] 91.2% | viability, T/C [16] 83.1% | viability, T/C [17] 61.2% | viability, T/C [18] 55% | viability, T/C [19] 103% | viability, T/C [20] 110% | viability, T/C [21] 93.7% | viability, T/C [22] 79.2% | viability, T/C [23] 72.4% | viability, T/C [24] 53.3% | viability, T/C [25] 96.6% | viability, T/C [26] 101% | viability, T/C [27] 93.4% | viability, T/C [28] 78.4% | viability, T/C [29] 61.1% | viability, T/C [30] 49.4% | viability, T/C [31] 89.3% | viability, T/C [32] 95% | viability, T/C [33] 96.4% | viability, T/C [34] 84% | viability, T/C [35] 69.8% | viability, T/C [36] 52.5%
> 10 µM: IC50 (second compound 0.000949 µM) | IC50 (second compound 0.003 µM) | IC50 (second compound 0.00949 µM) | IC50 (second compound 0.03 µM) | IC50 (second compound 0.3 µM)

CC(Nc1ccc2c(c1)OCCn1cc(N3C(=O)OCC3C(F)F)nc1-2)C(N)=O (stereo unspecified) + CCn1c(-c2cccnc2C(C)OC)c2c3cc(ccc31)N1CCOC(CC(NC(=O)C(C(C)C)N(C)C(=O)C3(F)CCN(C(=O)C#CC(C)(C)N(C)C)CC3)C(=O)N3CCCC(N3)C(=O)OCC(C)(C)C2)C1
> 10 µM: IC50 (second compound 0.000949 µM) | IC50 (second compound 0.003 µM) | IC50 (second compound 0.00949 µM) | IC50 (second compound 0.03 µM) | IC50 (second compound 0.0949 µM) | IC50 (second compound 0.3 µM)
inactive: viability, T/C [1] 93.3% | viability, T/C [2] 93.9% | viability, T/C [3] 82.2% | viability, T/C [4] 95.2% | viability, T/C [5] 99.2% | viability, T/C [6] 81.4% | viability, T/C [7] 93.6% | viability, T/C [8] 94.5% | viability, T/C [9] 93% | viability, T/C [10] 90.8% | viability, T/C [11] 93.5% | viability, T/C [12] 97.5% | viability, T/C [13] 93.4% | viability, T/C [14] 101% | viability, T/C [15] 91.1% | viability, T/C [16] 95.4% | viability, T/C [17] 93.8% | viability, T/C [18] 90.8% | viability, T/C [19] 90.7% | viability, T/C [20] 97% | viability, T/C [21] 90.4% | viability, T/C [22] 89.9% | viability, T/C [23] 102% | viability, T/C [24] 93.2% | viability, T/C [25] 85.9% | viability, T/C [26] 95.3% | viability, T/C [27] 81% | viability, T/C [28] 98.9% | viability, T/C [29] 106% | viability, T/C [30] 94.8% | viability, T/C [31] 95.1% | viability, T/C [32] 92% | viability, T/C [33] 90% | viability, T/C [34] 82.8% | viability, T/C [35] 94.6% | viability, T/C [36] 87.3%

CC(C)NCC(C(=O)N1CCN(c2ncnc3c2C(C)CC3O)CC1)c1ccc(Cl)cc1 (stereo unspecified) + CCn1c(-c2cccnc2C(C)OC)c2c3cc(ccc31)N1CCOC(CC(NC(=O)C(C(C)C)N(C)C(=O)C3(F)CCN(C(=O)C#CC(C)(C)N(C)C)CC3)C(=O)N3CCCC(N3)C(=O)OCC(C)(C)C2)C1
> 10 µM: IC50 (second compound 0.000949 µM) | IC50 (second compound 0.003 µM) | IC50 (second compound 0.00949 µM) | IC50 (second compound 0.03 µM) | IC50 (second compound 0.0949 µM) | IC50 (second compound 0.3 µM)
inactive: viability, T/C [1] 90.6% | viability, T/C [2] 90.6% | viability, T/C [3] 104% | viability, T/C [4] 88.8% | viability, T/C [5] 97.8% | viability, T/C [6] 104% | viability, T/C [7] 86.3% | viability, T/C [8] 98.3% | viability, T/C [9] 97% | viability, T/C [10] 91.5% | viability, T/C [11] 98.2% | viability, T/C [12] 97.5% | viability, T/C [13] 95.4% | viability, T/C [14] 95.9% | viability, T/C [15] 99.7% | viability, T/C [16] 93.3% | viability, T/C [17] 104% | viability, T/C [18] 104% | viability, T/C [19] 105% | viability, T/C [20] 90.6% | viability, T/C [21] 91.9% | viability, T/C [22] 94.9% | viability, T/C [23] 97.2% | viability, T/C [24] 96.7% | viability, T/C [25] 97.1% | viability, T/C [26] 97.2% | viability, T/C [27] 91.9% | viability, T/C [28] 95.1% | viability, T/C [29] 107% | viability, T/C [30] 101% | viability, T/C [31] 93.4% | viability, T/C [32] 93.8% | viability, T/C [33] 90.4% | viability, T/C [34] 93.2% | viability, T/C [35] 97.2% | viability, T/C [36] 92.4%
